Results published in patent US11713309B2, “Solid forms of Cerdulatinib” (Alexion Pharmaceuticals, Inc., priority 2018, dated 2023).
Counter-ions that a name gives are not always drawn. Like-named read-outs stand apart in the source and are kept apart here.

What was measured:
Format in all cases: physicochemical
[1] = Overall solid form comparison (summary statements)
Description: The hydration behavior of Compound I HCl Form I is reversible, such that rehydration of Compound I HCl Form I returns the single, crystalline form, allowing Compound I HCl Form I be stored at ambient conditions without desiccant.

[2] = Approximate kinetic solubility in pharmaceutical co-solvents; conditions: aqueous with cosolvent or surfactant or cyclodextrin, thermodynamic from solid, no-pH adjustment
Description: A summary of the approximate kinetic solubility of Compound I HCl Form I in organic solvents, simulated biological fluids, and common pharmaceutical co-solvents is provided in Tables 8-10, respectively.

[3] = Kinetic solubility in FaSSIF; conditions: listed as HC1 salt Form I
Protocol: (§1) Kinetic solubility testing was conducted as follows: About 40-55 mg material was weighed into a 5-mL EP pipe. 4 mL of water/bio-relevant media (SGF, FaSSIF, or FeSSIF) was added into the corresponding sample pipe (drug loading: ˜10 mg/mL calculated as freebase). The pipes were capped tightly and the material was verified to be in contact with the media. The sample vials were placed on a roller and start rolling at 37° C. (rate: 25 r/min). Samples were taken at 1, 2, 4, 24 h. For each time point, 1.0 mL of suspension was transferred into a 2-mL centrifuge tube and the samples were centrifuged. The supernatant was filtered via 0.45 μm PTFE membrane and solubility and pH were measured. An XRPD test on residual solids was conducted.

[4] = Kinetic solubility in water; conditions: 37° C., listed as HC1 salt Form I; for pH of supernatant: water (native pH 7.6); for Kinetic solubility: water
Protocol: as §1

[5] = Further solubility testing of Compound I HCl Form I in solvents
[6] = Slurry maturations in various solvents (form reproducibility/stability); conditions: acetonitrile, EtOAc, ethanol, IPA; cycling about 25 to about 50° C., about 4 days
Protocol: A series of slurry maturations in various solvents was performed to further analyze the form reproducibility/stability of the esylate, mesylate, HCl, and sulfate salts/co-crystals of Compound I. The solvents chosen were acetonitrile, EtOAc, ethanol, and IPA. The input materials were the salts/co-crystals of Compound I formed via the second scale up process. About 20 mg of each sample was charged to reflux tubes and heated with temperature cycling between about 25 and about 50° C. for about 4 days. The resulting materials were isolated by filtration and dried in vacuo at about 40° C. The results of the slurry maturations for the resulting HCl and mesylate salts/co-crystals are presented in subsections (a)-(d) below. The data for the resulting esylate and sulfate salts/co-crystals of Compound have been omitted due to notable form variation.

[7] = 2% Captisol in aqueous solution
[8] = 5% Captisol in aqueous solution
[9] = 5% Pharmasolve in aqueous solution
[10] = 5% Poloxamer F68 in aqueous solution
[11] = 10% Captisol in aqueous solution
[12] = 10% HP-β-CD in aqueous solution
[13] = 10% Labrasol in aqueous solution
[14] = 10% Pharmasolve in aqueous solution
[15] = 10% Poloxamer F68 in aqueous solution
[16] = 20% HP-β-CD in aqueous solution
[17] = 20% Labrasol in aqueous solution
[18] = 30% HP-β-CD in aqueous solution
[19] = 35% Labrasol in aqueous solution
[20] = 40% Captisol in aqueous solution
[21] = 40% HP-β-CD in aqueous solution
[22] = 50% Labrasol in aqueous solution

Stability relative to the other solid forms / salts of Compound I ([1]; listed as Compound I mono-HCl Form I): superior thermodynamically stability
Stability of the solid form ([1]; room temperature, ambient conditions): stable
solubility kinetic at 2 h [2, 7]: 2040 µg/mL
solubility kinetic at 24 h [2, 7]: 2510 µg/mL
solubility kinetic at 7 days [2, 7]: 2540 µg/mL
solubility kinetic at 2 h ([2]; 3% HP-β-CD in aqueous solution): 990 µg/mL
solubility kinetic at 24 h ([2]; 3% HP-β-CD in aqueous solution): 1120 µg/mL
solubility kinetic at 7 days ([2]; 3% HP-β-CD in aqueous solution): 1020 µg/mL
solubility kinetic at 2 h ([2]; 3% TPGS in aqueous solution): 1060 µg/mL
solubility kinetic at 24 h ([2]; 3% TPGS in aqueous solution): 640 µg/mL
solubility kinetic at 7 days ([2]; 3% TPGS in aqueous solution): 540 µg/mL
solubility kinetic at 2 h [2, 8]: 3010 µg/mL
solubility kinetic at 24 h [2, 8]: 3610 µg/mL
solubility kinetic at 7 days [2, 8]: 3750 µg/mL
solubility kinetic at 2 h ([2]; 5% HP-β-CD in aqueous solution): 1450 µg/mL
solubility kinetic at 24 h ([2]; 5% HP-β-CD in aqueous solution): 1390 µg/mL
solubility kinetic at 7 days ([2]; 5% HP-β-CD in aqueous solution): 1590 µg/mL
solubility kinetic at 2 h [2, 9]: 430 µg/mL
solubility kinetic at 24 h [2, 9]: 690 µg/mL
solubility kinetic at 2 h [2, 10]: 230 µg/mL
solubility kinetic at 24 h [2, 10]: 180 µg/mL
solubility kinetic at 2 h ([2]; 5% TPGS in aqueous solution): 1610 µg/mL
solubility kinetic at 24 h ([2]; 5% TPGS in aqueous solution): 1530 µg/mL
solubility kinetic at 7 days ([2]; 5% TPGS in aqueous solution): 1320 µg/mL
solubility kinetic at 2 h [2, 11]: 3040 µg/mL
solubility kinetic at 24 h [2, 11]: 3410 µg/mL
solubility kinetic at 7 days [2, 11]: 3670 µg/mL
solubility kinetic at 2 h [2, 12]: 1880 µg/mL
solubility kinetic at 24 h [2, 12]: 2030 µg/mL
solubility kinetic at 7 days [2, 12]: 1930 µg/mL
solubility kinetic at 2 h [2, 13]: 1150 µg/mL
solubility kinetic at 24 h [2, 13]: 820 µg/mL
solubility kinetic at 7 days [2, 13]: 700 µg/mL
solubility kinetic at 2 h [2, 14]: 700 µg/mL
solubility kinetic at 24 h [2, 14]: 570 µg/mL
solubility kinetic at 2 h [2, 15]: 260 µg/mL
solubility kinetic at 24 h [2, 15]: 210 µg/mL
solubility kinetic at 2 h ([2]; 10% TPGS in aqueous solution): 1800 µg/mL
solubility kinetic at 24 h ([2]; 10% TPGS in aqueous solution): 1930 µg/mL
solubility kinetic at 7 days ([2]; 10% TPGS in aqueous solution): 1720 µg/mL
solubility kinetic at 2 h [2, 16]: 2630 µg/mL
solubility kinetic at 24 h [2, 16]: 2810 µg/mL
solubility kinetic at 7 days [2, 16]: 2650 µg/mL
solubility kinetic at 2 h [2, 17]: 1840 µg/mL
solubility kinetic at 24 h [2, 17]: 1850 µg/mL
solubility kinetic at 7 days [2, 17]: 1710 µg/mL
solubility kinetic at 2 h ([2]; 20% PEG in aqueous solution): 270 µg/mL
solubility kinetic at 24 h ([2]; 20% PEG in aqueous solution): 370 µg/mL
solubility kinetic at 2 h ([2]; 20% TPGS in aqueous solution): 2450 µg/mL
solubility kinetic at 24 h ([2]; 20% TPGS in aqueous solution): 2420 µg/mL
solubility kinetic at 7 days ([2]; 20% TPGS in aqueous solution): 2620 µg/mL
solubility kinetic at 2 h [2, 18]: 2980 µg/mL
solubility kinetic at 24 h [2, 18]: 2940 µg/mL
solubility kinetic at 2 h ([2]; 30% PEG in aqueous solution): 420 µg/mL
solubility kinetic at 24 h ([2]; 30% PEG in aqueous solution): 450 µg/mL
solubility kinetic at 7 days ([2]; 30% PEG in aqueous solution): 410 µg/mL
solubility kinetic at 2 h [2, 19]: 1900 µg/mL
solubility kinetic at 24 h [2, 19]: 2010 µg/mL
solubility kinetic at 7 days [2, 19]: 1800 µg/mL
solubility kinetic at 2 h [2, 20]: 4250 µg/mL
solubility kinetic at 24 h [2, 20]: 4400 µg/mL
solubility kinetic at 7 days [2, 20]: 4330 µg/mL
solubility kinetic at 2 h [2, 21]: 3860 µg/mL
solubility kinetic at 24 h [2, 21]: 3840 µg/mL
solubility kinetic at 7 days [2, 21]: 4120 µg/mL
solubility kinetic at 2 h [2, 22]: 2050 µg/mL
solubility kinetic at 24 h [2, 22]: 2650 µg/mL
solubility kinetic at 7 days [2, 22]: 2200 µg/mL
solubility kinetic at 2 h ([2]; 50% PEG in aqueous solution): 2170 µg/mL
solubility kinetic at 24 h ([2]; 50% PEG in aqueous solution): 870 µg/mL
solubility kinetic at 7 days ([2]; 50% PEG in aqueous solution): 690 µg/mL
Solubility (mg/mL) 1 h ([3]; FaSSIF, 37° C., 1 h, drug loading ~10 mg/mL as freebase): 0.012 mg/mL
Solubility (mg/mL) 2 h ([3]; FaSSIF, 37° C., 2 h): 0.013 mg/mL
Solubility (mg/mL) 4 h ([3]; FaSSIF, 37° C., 4 h): 0.013 mg/mL
Solubility (mg/mL) 24 h ([3]; FaSSIF, 37° C., 24 h): 0.011 mg/mL
pH 1 h ([3]; supernatant, FaSSIF (native pH 6.5), 1 h): 5.4
pH 2 h ([3]; supernatant, FaSSIF (native pH 6.5), 2 h): 5.1
pH 4 h ([3]; supernatant, FaSSIF (native pH 6.5), 4 h): 5.2
pH 24 h ([3]; supernatant, FaSSIF (native pH 6.5), 24 h): 4.6
pH of supernatant ([4]; 1 h): 3.1
pH of supernatant ([4]; 2 h): 2.9
pH of supernatant ([4]; 4 h): 3.0
pH of supernatant ([4]; 24 h): 2.9
Kinetic solubility ([4]; 1 h): 220 µg/mL
Kinetic solubility ([4]; 2 h): 250 µg/mL
Kinetic solubility ([4]; 4 h): 180 µg/mL
Kinetic solubility ([4]; 24 h): 180 µg/mL
solubility ([5]; 1,4-dioxane, organic solvent or mixture): < 2100 µg/mL
solubility ([5]; 2-MeTHF, organic solvent or mixture): < 2100 µg/mL
solubility ([5]; ACN, organic solvent or mixture): < 2200 µg/mL
solubility ([5]; ACN/H2O, 4:1 (v/v), organic solvent or mixture): 2900 to 3800 µg/mL
solubility ([5]; Acetone/H2O, 4:1 (v/v), organic solvent or mixture): < 1900 µg/mL
solubility ([5]; CHCl3, organic solvent or mixture): < 2300 µg/mL
solubility ([5]; CPME, organic solvent or mixture): < 2000 µg/mL
solubility ([5]; DCM, organic solvent or mixture): < 2100 µg/mL
solubility ([5]; DMSO, organic solvent or mixture): > 36000 µg/mL
solubility ([5]; EtOAc, organic solvent or mixture): < 2000 µg/mL
solubility ([5]; EtOH, organic solvent or mixture): < 2200 µg/mL
solubility ([5]; EtOH/H2O, 4:1 (v/v), organic solvent or mixture): < 2000 µg/mL
solubility ([5]; IPA, organic solvent or mixture): < 1900 µg/mL
solubility ([5]; IPAc, organic solvent or mixture): < 2300 µg/mL
solubility ([5]; MIBK, organic solvent or mixture): < 2300 µg/mL
solubility ([5]; MTBE, organic solvent or mixture): < 2000 µg/mL
solubility ([5]; MeOH, organic solvent or mixture): 1900 to 6300 µg/mL
solubility ([5]; MeOH/DCM, 1:1 (v/v), organic solvent or mixture): 6800 to 12500 µg/mL
solubility ([5]; MeOH/H2O, 4:1 (v/v), organic solvent or mixture): < 2000 µg/mL
solubility ([5]; NMP, organic solvent or mixture): 4000 to 6700 µg/mL
solubility ([5]; THF, organic solvent or mixture): < 1900 µg/mL
solubility ([5]; THF/H2O, 4:1 (v/v), organic solvent or mixture): 2000 to 2500 µg/mL
solubility ([5]; acetone, organic solvent or mixture): < 2200 µg/mL
solubility ([5]; anisole, organic solvent or mixture): < 2300 µg/mL
solubility ([5]; n-heptane, organic solvent or mixture): < 1900 µg/mL
solubility ([5]; toluene, organic solvent or mixture): < 2100 µg/mL
Form after slurry maturation (XRPD) [6]: does not experience any form change
SMILES: CCS(=O)(=O)N1CCN(c2ccc(Nc3ncc(C(N)=O)c(NC4CC4)n3)cc2)CC1 [Compound I HCl Form I, 4-(cyclopropylamino)-2-(4-(4-(ethylsulfonyl)piperazin-1-yl)phenylamino)pyrimidine-5-carboxamide]
Stability relative to the other solid forms / salts of Compound I [1]: most physico-chemically stable solid form
